US11370743B2, “Prodrug derivatives of protein kinase C modulators” (priority 2017, dated 2022)
Like-named read-outs stand apart in the source and are kept apart here.

Columns and labels:
[1] = system: C57/bl6 mice; assay: In vivo C57/bl6 Mouse CD69 Stimulation Assay; settings: for CD69 expression versus parent compound: 60 μg dose; for stimulation of CD69 in splenocytes: 24 h post-injection; for bolus toxicity: highest dosage
Method: In vivo C57/bl6 Mouse CD69 Stimulation Assay: C57/bl6 mice were obtained from the UCLA Department of Radiation Oncology. Prodrugs of the disclosure were administered intravenously via retro-orbital injection. At 24 h post-injection, mice were sacrificed and the spleens isolated. Spleens were disaggregated by forcing tissue through a steel mesh and then filtered through a 40 μm filter to produce a single-cell suspension. These cells were then stained for flow cytometry to analyze surface expression of relevant markers. Cells were first suspended in 50 μL of a 1:1 mix of 1× PBS and human AB serum (Sigma) and then stained with a combination of anti-mouse CD3-fluorescein isothiocyanate (eBioscience), CD69-phycoerythrin (eBioscience), and CD4-peridinin chlorophyll protein (eBioscience). Following antibody addition, the mixture was incubated at 4° C. for 15 min. The cells were then washed, resuspended in 1× PBS containing 2% paraformaldehyde, and stored at 4° C. Fixed cells were analyzed using an LSRFortessa (BD Biosciences). The resultant list mode files were processed using FlowJo software (version 7.6).

[2] = target: T1, Novel PKCδ (Homo sapiens, UniProt Q05655); assay: PKC binding affinity, competitive radioligand assay against 3H-PDBu
T1 construct: a specific full-length PKC isoform was combined with Tris-HCl, KCl, CaCl2
T1 sequence (Q05655 whole entry, canonical isoform): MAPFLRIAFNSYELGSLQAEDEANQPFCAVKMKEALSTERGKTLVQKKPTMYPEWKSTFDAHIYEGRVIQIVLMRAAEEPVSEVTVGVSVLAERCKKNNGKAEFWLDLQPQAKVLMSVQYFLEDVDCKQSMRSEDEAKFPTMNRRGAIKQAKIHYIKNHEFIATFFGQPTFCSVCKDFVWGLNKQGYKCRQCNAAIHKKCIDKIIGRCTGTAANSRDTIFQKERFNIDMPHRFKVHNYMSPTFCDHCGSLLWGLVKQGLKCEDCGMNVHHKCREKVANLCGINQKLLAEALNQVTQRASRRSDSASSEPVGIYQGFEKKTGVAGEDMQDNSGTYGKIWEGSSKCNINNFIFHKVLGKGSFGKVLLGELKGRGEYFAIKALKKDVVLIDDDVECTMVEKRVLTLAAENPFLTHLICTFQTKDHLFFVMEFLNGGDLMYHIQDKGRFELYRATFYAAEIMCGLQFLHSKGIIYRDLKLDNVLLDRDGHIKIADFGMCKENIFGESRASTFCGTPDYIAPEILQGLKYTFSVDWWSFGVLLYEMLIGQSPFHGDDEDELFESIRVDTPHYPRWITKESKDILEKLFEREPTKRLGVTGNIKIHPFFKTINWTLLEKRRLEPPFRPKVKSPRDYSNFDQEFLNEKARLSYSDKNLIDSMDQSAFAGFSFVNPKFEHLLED
Method: (§1) Testing of Compounds for PKC Binding Affinity: A heterogeneous competitive radioligand assay against ^3H-phorbol-12,13-dibutyrate (^3H-PDBu) was used to generate PKC binding constant (Ki) values. In a typical assay, a specific full-length PKC isoform was combined with Tris-HCl, KCl, CaCl2, bovine serum albumin, water, and phosphatidyl serine. Serial dilutions of the respective analog were added to the PKC mixture; in addition, a solution of a compound with known PKC binding affinity and a solution containing no sample were added for reference.
(§2) After addition of [^3H]PDBu, these samples were incubated, filtered through filters previously wetted with polyethyleneimine and the filters were washed with Tris buffer. The filters were then placed into scintillation vials which were then filled with Bio-Safe scintillation fluid and were measured for radioactivity using a Beckman LS 6000SC scintillation counter. Counts per minute (cpm) were averaged for each triplicate dilution. The data was then plotted (cpm vs. log(concentration)) using Prism® by GraphPad Software and an IC50 was determined using that program's built-in one-site competition least squares regression function. Ki values were calculated by the equation: Ki=IC50/(1+[^3H-PDBu])/KD of ^3H-PDBu).

[3] = system: porcine liver esterase; assay: Porcine Liver Esterase Assay; assay type: in vitro ADME; settings: pig; 60 units of porcine liver esterase, HEPES buffered saline, pH 7.4, 10% DMSO, 37° C.; read-out: Esterase stability (t1/2)* (converted)
Method: (§3) Hydrolytic Stability Assay: A solution of 400 μM of parent compound or prodrug derivative with 2,4,6-trimethylphenol (800 μM, 107 μg) in HEPES buffered saline, pH 7.4, with 10% DMSO (total volume 1000 μL) was incubated at 37° C. At appropriate time points, 100 μL was removed, flash frozen, and lyophilized. The lyophilized material was then diluted with 100 μL acetonitrile, filtered, and analyzed by analytical HPLC. The degree of degradation was calculated relative to the area under the curve of the compound of interest compared to the internal standard, 2,4,6-trimethylphenol, as shown in Table 1. Porcine Liver Esterase Assay: A solution of 400 μM of parent compound or prodrug derivative with 2,4,6-trimethylphenol (800 μM, 160 μg) and 60 units of porcine liver esterase in HEPES buffered saline, pH 7.4, with 10% DMSO (total volume 1500 μL) was incubated at 37° C. At appropriate time points, 150 μL was removed, flash frozen, and centrifuged at 10,000 rpm. 140 μL of the supernatant was removed and lyophilized. The lyophilized material was then diluted with 100 μL acetonitrile, filtered, and analyzed by analytical HPLC. The degree of esterase cleavage was calculated relative to the area under the curve of the compound of interest compared to the internal standard, 2,4,6-trimethylphenol.

[4] = Hydrolytic Stability Assay; assay type: physicochemical; settings: buffer, HEPES buffered saline, pH 7.4, 10% DMSO, 37° C.; for half-life at 400 μM: read-out: Hydrolytic stability (t1/2); for half-life: read-out: Hydrolytic stability (t1/2) (converted)
Method: as §3

[5] = target: T2, Conventional PKCβI (Homo sapiens, UniProt P05771); assay: PKC binding affinity, competitive radioligand assay against 3H-PDBu
T2 construct: a specific full-length PKC isoform was combined with Tris-HCl, KCl, CaCl2
T2 sequence (P05771 whole entry, canonical isoform): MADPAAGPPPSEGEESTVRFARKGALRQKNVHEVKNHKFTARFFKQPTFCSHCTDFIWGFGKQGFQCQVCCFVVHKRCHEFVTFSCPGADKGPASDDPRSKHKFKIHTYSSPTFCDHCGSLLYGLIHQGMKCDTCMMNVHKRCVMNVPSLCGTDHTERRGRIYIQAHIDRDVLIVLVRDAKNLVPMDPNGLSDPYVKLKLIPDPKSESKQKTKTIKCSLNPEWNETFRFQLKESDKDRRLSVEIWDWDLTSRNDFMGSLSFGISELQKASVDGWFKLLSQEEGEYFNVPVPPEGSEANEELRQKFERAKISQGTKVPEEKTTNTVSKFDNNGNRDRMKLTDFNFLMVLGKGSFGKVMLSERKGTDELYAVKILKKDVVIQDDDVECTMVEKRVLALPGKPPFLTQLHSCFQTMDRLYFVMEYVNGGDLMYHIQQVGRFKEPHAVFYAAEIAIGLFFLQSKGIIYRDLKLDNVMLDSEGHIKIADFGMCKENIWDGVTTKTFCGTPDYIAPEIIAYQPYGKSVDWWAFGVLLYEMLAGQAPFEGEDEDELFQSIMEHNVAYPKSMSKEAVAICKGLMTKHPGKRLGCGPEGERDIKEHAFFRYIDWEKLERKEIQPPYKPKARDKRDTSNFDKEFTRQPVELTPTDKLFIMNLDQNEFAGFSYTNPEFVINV
Method: as §1, §2

[6] = system: T-lymphoblastoid CEM-SS and C-8166 cells; settings: CEM-SS and C-8166 cell lines; cited from earlier work
[7] = target: T3, PKC; assay: Saturation binding of 3H-PDBu; settings: batch-to-batch variability
T3 construct: rows headed: KD of 3H-PDBu

[8] = intravenous retro-orbital injection
[9] = vs 3H-PDBu, read-out: PKC binding affinity, Ki, Novel PKCδ

In the case of `CC1=C[C@H]2[C@@]3(O)[C@H](C)C[C@]4(OC(=O)CC56CC7CC(CC(C7)C5)C6)[C@H]([C@@H]3C=C(CO)C[C@]2(O)C1=O)C4(C)C` [Compound 3, adamantyl prostratin], the survival of mice [1, 8] is reported as “one mouse casualty at 60 pg and no survival beyond that dose” and the “potency compared with prostratin” value ([1]; intravenous retro-orbital injection, 24 h) is reported as “higher potency than prostratin”.
In the case of `CC(=O)OCC1=C[C@H]2[C@@H]3C(C)(C)[C@]3(OC(=O)CC34CC5CC(CC(C5)C3)C4)C[C@@H](C)[C@]2(O)[C@@H]2C=C(C)C(=O)[C@@]2(O)C1` [Compound 4a], the Ki [2] is reported as 9400 nM, the “CD69 expression versus parent compound” value [1] is reported as “more moderate levels of activation” and the “stimulation of CD69 in splenocytes” value [1] is reported as “strong stimulation of CD69 in splenocytes”. The bolus toxicity [1] was “no bolus toxicity on mice even at the highest dosage”, the survival of mice [1, 8] was “survived” and the half-life at 400 μM [3] was 27 ± 3 h. The half-life at 400 μM [4] was greater than 168 h.
`CCCCCC(=O)OCC1=C[C@H]2[C@@H]3C(C)(C)[C@]3(OC(=O)CC34CC5CC(CC(C5)C3)C4)C[C@@H](C)[C@]2(O)[C@@H]2C=C(C)C(=O)[C@@]2(O)C1` [Compound 4b] gave a Ki [5] greater than 2500 nM, a Ki [2] greater than 2500 nM and a half-life at 400 μM [3] of 2.4 ± 0.5 h. For the same compound, the half-life at 400 μM [4] was greater than 1780 h.
For `CCCCCCCCCC(=O)OCC1=C[C@H]2[C@@H]3C(C)(C)[C@]3(OC(=O)CC34CC5CC(CC(C5)C3)C4)C[C@@H](C)[C@]2(O)[C@@H]2C=C(C)C(=O)[C@@]2(O)C1` [Compound 4c], the Ki [2] was 9000 nM, the “CD69 expression versus parent compound” value [1] was “comparable” and the “stimulation of CD69 in splenocytes” value [1] was “strong stimulation of CD69 in splenocytes”. For the same compound, the bolus toxicity [1] was “no bolus toxicity on mice even at the highest dosage”, the survival of mice [1, 8] was “survived” and the half-life at 400 μM [3] was 19 ± 2 h. The half-life at 400 μM [4] was greater than 168 h.
For `CC1=C[C@H]2[C@@]3(O)[C@H](C)C[C@]4(OC(=O)CC56CC7CC(CC(C7)C5)C6)[C@H]([C@@H]3C=C(COC(=O)c3ccccc3)C[C@]2(O)C1=O)C4(C)C` [Compound 4d], the Ki [5] was greater than 500 nM, the Ki [2] was greater than 2500 nM and the half-life at 400 μM [3] was 32 ± 9 h. For the same compound, the half-life at 400 μM [4] was greater than 168 h.
`CCOC(=O)OCC1=C[C@H]2[C@@H]3C(C)(C)[C@]3(OC(=O)CC34CC5CC(CC(C5)C3)C4)C[C@@H](C)[C@]2(O)[C@@H]2C=C(C)C(=O)[C@@]2(O)C1` [Compound 4e] showed a Ki [2] of 380 nM, a half-life at 400 μM [3] of 4.8 ± 0.6 h and a half-life at 400 μM [4] greater than 168 h.
`CCCCCCCCNC(=O)OCC1=C[C@H]2[C@@H]3C(C)(C)[C@]3(OC(=O)CC34CC5CC(CC(C5)C3)C4)C[C@@H](C)[C@]2(O)[C@@H]2C=C(C)C(=O)[C@@]2(O)C1` [Compound 4f] gave a Ki [2] of 2900 nM, a half-life at 400 μM [3] of 71 ± 13 h and a half-life at 400 μM [4] greater than 168 h.
`CC1=C[C@]23C(=O)[C@@H](C=C(CO)[C@@H](O)[C@]2(O)[C@H]1OC(=O)c1ccc(Br)cc1C)[C@H]1[C@@H](C[C@H]3C)C1(C)C` [Compound 6, o-methyl-p-bromo-benzoate ingenol ester] gave a Ki ([5]; vs 3H-PDBu, read-out: PKC binding affinity, Ki, Conventional PKCβI) of 0.85 nM, a Ki [2, 9] of 1.1 nM and a half-life [3] of 1 h. The half-life [4] was 18 h.
`CCCCCCCCCC(=O)OCC1=C[C@@H]2C(=O)[C@]3(C=C(C)[C@H](OC(=O)c4ccc(Br)cc4C)[C@@]3(O)[C@@H]1O)[C@H](C)C[C@@H]1[C@H]2C1(C)C` [Compound 7] gave a Ki [2, 9] of 11000 nM, a half-life [3] of 2 h and a half-life [4] of 2 h.
In the case of `CC(=O)O[C@@]12C[C@@H](C)[C@@]3(O)[C@@H](C=C(CO)C[C@]4(O)C(=O)C(C)=C[C@@H]34)[C@@H]1C2(C)C` [prostratin], the “concentration restoring cell viability to the level of uninfected controls” value [6] is given as “approximately 1 μM” and the “no sign of cytotoxicity up to” value [6] is given as “about 25 μM”.
^3H-phorbol-12,13-dibutyrate [^3H-PDBu] gave a Kd [7] of 1.55 to 4.4 nM.
